Results: patent publication US20260265265A1, “NOVEL BENZIMIDAZOLONE DERIVATIVE COMPOUND AS AUTOTAXIN INHIBITOR” (LG CHEM, LTD., priority 2023, published 2026)

Target: T1, Recombinant Human ENPP-2/Autotaxin (Homo sapiens, UniProt Q13822)
T1 construct: purchased R&D systems 5255-EN
Assay: LysoPLD activity measurement (autotaxin enzyme inhibition, choline release, TOOS reagent)
Format: biochemical
Settings: LysoPLD inhibitory activity; substrate 14:0 LysoPC; absorbance at 555 nm
Experimental: Such a measurement method is a method of measuring the amount of choline, which is a reaction product in an autotaxin enzyme reaction, using a TOOS reagent. Depending on the activity of the autotaxin inhibitor, the amount of choline produced as a reaction product varies, which affects the final absorbance.
After 30 min, 14:0 LysoPC of the substrate diluted to a concentration of 300 μM with the enzyme reaction buffer solution was dispensed into each well by 50 μL and allowed to stand at 37° C. for 90 minutes. At this time, negative control wells were dispensed with 1% DMSO, substrate, and autotaxin instead of the compound, and positive control wells were dispensed with 1% DMSO and substrate.

| Structure (SMILES) | IC50 [nM] |
| --- | --- |
| O=C(O)c1cccc(C2(n3c(=O)n(-c4ccc(C5CCOCC5)nc4)c4cc(Cl)ccc43)CC2)c1 [Example 261, 3-(1-(5-chloro-2-oxo-3-(6-(tetrahydro-2H-pyran-4-yl)pyridin-3-yl)-2,3-dihydro-1H-benzo[d]imidazol-1-yl)cyclopropyl)benzoic acid] | 10 to 100 |
| CN(C)C(=O)c1ccc(-n2c(=O)n(CCc3cccc(C(=O)O)c3)c3ccc(Cl)cc32)cc1 [Example 113, 3-(2-(5-chloro-3-(4-(dimethylcarbamoyl)phenyl)-2-oxo-2,3-dihydro-1H-benzo[d]imidazol-1-yl)ethyl)benzoic acid] | 100 to 1000 |
| O=C(O)c1cccc(Cn2c(=O)n(-c3ccc(C(=O)O)cc3F)c3cc(Cl)ccc32)c1 [Example 46, 4-(3-(3-carboxybenzyl)-6-chloro-2-oxo-2,3-dihydro-1H-benzo[d]imidazol-1-yl)-3-fluorobenzoic acid] | 100 to 1000 |
| O=C(O)c1cccc(Cn2c(=O)n(-c3ccc(N4CCC(F)(F)C4)nc3)c3cc(Cl)ccc32)c1 [Example 80, 3-((5-chloro-3-(6-(3,3-difluoropyrrolidin-1-yl)pyridin-3-yl)-2-oxo-2,3-dihydro-1H-benzo[d]imidazol-1-yl)methyl)benzoic acid] | 100 to 1000 |
| O=C(O)c1cccc(Cn2c(=O)n(-c3ccc(N4CCOCC4)cc3)c3cc(Cl)cnc32)c1 [Example 162, 3-((6-chloro-1-(4-morpholinophenyl)-2-oxo-1,2-dihydro-3H-imidazo[4,5-b]pyridin-3-yl)methyl)benzoic acid] | 100 to 1000 |
| CN1Cc2cc(-n3c(=O)n(Cc4cccc(C(=O)O)c4)c4ccc(Cl)cc43)ccc2C1=O [Example 116, 3-((5-chloro-3-(2-methyl-1-oxoisoindolin-5-yl)-2-oxo-2,3-dihydro-1H-benzo[d]imidazol-1-yl)methyl)benzoic acid] | 100 to 1000 |
| O=C(O)c1cccc(Cn2c(=O)n(-c3ccc4c(c3)OCO4)c3cc(Cl)ccc32)c1 [Example 9, 3-((3-(benzo[d][1,3]dioxol-5-yl)-5-chloro-2-oxo-2,3-dihydro-1H-benzo[d]imidazol-1-yl)methyl)benzoic acid] | 100 to 1000 |
| O=C(O)c1cccc(C2(n3c(=O)n(-c4ccc(-c5nnc(C6CCCCCC6)o5)cc4)c4cc(Cl)ccc43)CC2)c1 [Example 264, 3-(1-(5-chloro-3-(4-(5-cycloheptyl-1,3,4-oxadiazol-2-yl)phenyl)-2-oxo-2,3-dihydro-1H-benzo[d]imidazol-1-yl)cyclopropyl)benzoic acid] | 10 to 100 |
| O=C(O)c1cccc(Cn2c(=O)n(-c3ccc(N4CCOCC4)cc3)c3c(F)c(Cl)ccc32)n1 [Example 52, 6-((5-chloro-4-fluoro-3-(4-morpholinophenyl)-2-oxo-2,3-dihydro-1H-benzo[d]imidazol-1-yl)methyl)picolinic acid] | 10 to 100 |
| CC(C)(O)c1ccc(-n2c(=O)n(Cc3cccc(C(=O)O)c3)c3ccc(Cl)cc32)cc1 [Example 18, 3-((5-chloro-3-(4-(2-hydroxypropan-2-yl)phenyl)-2-oxo-2,3-dihydro-1H-benzo[d]imidazol-1-yl)methyl)benzoic acid] | 10 to 100 |
| O=C(O)c1coc(Cn2c(=O)n(-c3ccc(N4CCOCC4)cc3)c3c(F)c(Cl)ccc32)n1 [Example 199, 2-((5-chloro-4-fluoro-3-(4-morpholinophenyl)-2-oxo-2,3-dihydro-1H-benzo[d]imidazol-1-yl)methyl)oxazole-4-carboxylic acid] | 100 to 1000 |
| CN(C)c1ccc(-n2c(=O)n(Cc3cc(F)cc(C(=O)O)c3)c3c(F)cc(Cl)cc32)cc1 [Example 65, 3-((5-chloro-3-(4-(dimethylamino)phenyl)-7-fluoro-2-oxo-2,3-dihydro-1H-benzo[d]imidazol-1-yl)methyl)-5-fluorobenzoic acid] | 10 to 100 |
| CN(C)c1ccc(-n2c(=O)n(Cc3cccc(C(=O)O)c3)c3ccc(Cl)cc32)cn1 [Example 79, 3-((5-chloro-3-(6-(dimethylamino)pyridin-3-yl)-2-oxo-2,3-dihydro-1H-benzo[d]imidazol-1-yl)methyl)benzoic acid] | 10 to 100 |
| CN(C)c1ccc(-n2c(=O)n(Cc3cccc(C(=O)O)c3)c3ccc(Cl)c(F)c32)cc1 [Example 25, 3-((5-chloro-3-(4-(dimethylamino)phenyl)-4-fluoro-2-oxo-2,3-dihydro-1H-benzo[d]imidazol-1-yl)methyl)benzoic acid] | 10 to 100 |
| O=C(O)c1cc(F)cc(C2(n3c(=O)n(-c4ccc(N5CC(F)(F)C5)cc4)c4cc(Cl)ccc43)CC2)c1 [Example 194, 3-(1-(5-chloro-3-(4-(3,3-difluoroazetidin-1-yl)phenyl)-2-oxo-2,3-dihydro-1H-benzo[d]imidazol-1-yl)cyclopropyl)-5-fluorobenzoic acid] | < 10 |
| O=C(O)c1cccc(C2(n3c(=O)n(-c4ccc(C(=O)N5CC6(CCOCC6)C5)cc4)c4cc(Cl)ccc43)CC2)c1F [Example 107, 3-(1-(3-(4-(7-oxa-2-azaspiro[3.5]nonane-2-carbonyl)phenyl)-5-chloro-2-oxo-2,3-dihydro-1H-benzo[d]imidazol-1-yl)cyclopropyl)-2-fluorobenzoic acid] | < 10 |
| CCC(=O)N1CCC(c2ccc(-n3c(=O)n(Cc4cccc(C(=O)O)c4F)c4ccc(Cl)c(F)c43)cc2)CC1 [Example 151, 3-((5-chloro-4-fluoro-2-oxo-3-(4-(1-propionylpiperidin-4-yl)phenyl)-2,3-dihydro-1H-benzo[d]imidazol-1-yl)methyl)-2-fluorobenzoic acid] | 10 to 100 |
| O=C(O)c1cccc(Cn2c(=O)n(-c3cnn(CC4CCC4)c3)c3cc(Cl)ccc32)c1 [Example 91, 3-((5-chloro-3-(1-cyclobutylmethyl-1H-pyrazol-4-yl)-2-oxo-2,3-dihydro-1H-benzo[d]imidazol-1-yl)methyl)benzoic acid] | 100 to 1000 |

The remaining lines, values ahead:

| IC50 [nM] | Structure (SMILES) |
| --- | --- |
| < 10 | O=C(O)c1cccc(C2(n3c(=O)n(-c4ccc(C(=O)N5CCCC5)cc4)c4cc(Cl)ccc43)CC2)c1F [Example 67, 3-(1-(5-chloro-2-oxo-3-(4-(pyrrolidine-1-carbonyl)phenyl)-2,3-dihydro-1H-benzo[d]imidazol-1-yl)cyclopropyl)-2-fluorobenzoic acid] |
| < 10 | O=C(O)c1cccc(C2(n3c(=O)n(-c4ccc(C5=CCOCC5)cc4)c4cc(Cl)ccc43)CC2)c1F [Example 122, 3-(1-(5-chloro-3-(4-(3,6-dihydro-2H-pyran-4-yl)phenyl)-2-oxo-2,3-dihydro-1H-benzo[d]imidazol-1-yl)cyclopropyl)-2-fluorobenzoic acid] |
| < 10 | CN(C)C(=O)c1ccc(-n2c(=O)n(Cc3cccc(C(=O)O)c3)c3c(F)cc(Cl)cc32)cc1 [Example 54, 3-((5-chloro-3-(4-(dimethylcarbamoyl)phenyl)-7-fluoro-2-oxo-2,3-dihydro-1H-benzo[d]imidazol-1-yl)methyl)benzoic acid] |
| < 10 | C[C@@H]1CN(C(=O)Cc2ccc(-n3c(=O)n(C4(c5cccc(C(=O)O)c5)CC4)c4ccc(Cl)cc43)cc2)CCO1 [Example 175, (R)-3-(1-(5-chloro-3-(4-(2-(2-methylmorpholino)-2-oxoethyl)phenyl)-2-oxo-2,3-dihydro-1H-benzo[d]imidazol-1-yl)cyclopropyl)benzoic acid] |
| < 10 | O=C(O)c1cccc(C2(n3c(=O)n(-c4ccc(C(=O)N5CC6(CCOCC6)C5)cc4)c4cc(Cl)ccc43)CC2)c1 [Example 93, 3-(1-(3-(4-(7-oxa-2-azaspiro[3.5]nonane-2-carbonyl)phenyl)-5-chloro-2-oxo-2,3-dihydro-1H-benzo[d]imidazol-1-yl)cyclopropyl)benzoic acid] |
| < 10 | O=C(O)c1cccc(C2(n3c(=O)n(-c4ccc(N5CC6CC5CO6)cc4)c4cc(Cl)ccc43)CC2)c1 (centres unmarked) [Example 181, 3-(1-(3-(4-(2-oxa-5-azabicyclo[2.2.1]heptan-5-yl)phenyl)-5-chloro-2-oxo-2,3-dihydro-1H-benzo[d]imidazol-1-yl)cyclopropyl)benzoic acid] |
| < 10 | CN1CCN(C(=O)c2ccc(-n3c(=O)n(Cc4cccc(C(=O)O)c4)c4ccc(Cl)cc43)cc2)CC1 [Example 60, 3-((5-chloro-3-(4-(4-methylpiperazine-1-carbonyl)phenyl)-2-oxo-2,3-dihydro-1H-benzo[d]imidazol-1-yl)methyl)benzoic acid] |
| < 10 | CN(C)C(=O)c1ccc(-n2c(=O)n(C3(c4cccc(C(=O)O)c4F)CC3)c3ccc(Cl)cc32)cc1 [Example 72, 3-(1-(5-chloro-3-(4-(dimethylcarbamoyl)phenyl)-2-oxo-2,3-dihydro-1H-benzo[d]imidazol-1-yl)cyclopropyl)-2-fluorobenzoic acid] |
| < 10 | O=C(O)c1cc(F)cc(C2(n3c(=O)n(-c4ccc(C5(O)CCC5)cc4)c4cc(Cl)ccc43)CC2)c1 [Example 257, 3-(1-(5-chloro-3-(4-(1-hydroxycyclobutyl)phenyl)-2-oxo-2,3-dihydro-1H-benzo[d]imidazol-1-yl)cyclopropyl)-5-fluorobenzoic acid] |
| < 10 | O=C(O)c1cc(F)cc(C2(n3c(=O)n(-c4ccc(C(=O)N5CCCC5)cc4)c4cc(Cl)cnc43)CC2)c1 [Example 276, 3-(1-(6-chloro-2-oxo-1-(4-(pyrrolidine-1-carbonyl)phenyl)-1,2-dihydro-3H-imidazo[4,5-b]pyridin-3-yl)cyclopropyl)-5-fluorobenzoic acid] |
| < 10 | O=C(O)c1cccc(Cn2c(=O)n(-c3ccc(C(=O)N4CCCC4)cc3)c3cc(Cl)ccc32)c1F [Example 56, 3-((5-chloro-2-oxo-3-(4-(pyrrolidine-1-carbonyl)phenyl)-2,3-dihydro-1H-benzo[d]imidazol-1-yl)methyl)-2-fluorobenzoic acid] |
